This test concerns nude mice, LX-1 lung xenograft intrarenal, tumor weight T/C. Briefly: NCI In Vivo Anticancer Drug Screen. Data for tumor model Human Lung LX-1 Xenograft (intrarenal inoculation) in NU/NU Swiss (nude) mice. The following applies: endpoint: mean tumor weight change, higher = larger tumour. The essentials:
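Activity was scored by measuring tumors in treated animals and in vehicle controls, then reporting the treated result as a fraction of the control result.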

[1] abbreviates: dose: 100.0 mg/kg/injection, schedule: Q01DX010 (sc), vehicle: saline.
Setting [2] is: dose: 12.5 mg/kg/injection, schedule: Q01DX010 (sc), vehicle: saline.
[3] abbreviates: dose: 300.0 mg/kg/injection, schedule: Q04DX003 (sc), vehicle: Klucel (hydroxypropylcellulose) (HPC).
Setting [4] is: dose: 600.0 mg/kg/injection, schedule: Q04DX003 (sc), vehicle: Klucel (hydroxypropylcellulose) (HPC).
Setting [5] is: dose: 200.0 mg/kg/injection, schedule: Q04DX003 (sc), vehicle: saline.
[6] abbreviates: dose: 300.0 mg/kg/injection, schedule: Q04DX003 (sc), vehicle: saline.
[7] abbreviates: dose: 600.0 mg/kg/injection, schedule: Q04DX003 (sc), vehicle: saline.
The mark [8] stands for this setting: dose: 50.0 mg/kg/injection, schedule: Q01DX010 (sc), vehicle: saline.

This is an account of results in PubChem BioAssay AID264 (DTP/NCI, 2004).

“And” between values parts separate entries of the source, which are not always exact repeats. Equal entries are not always repeated. Records with an inconclusive call do not appear.

Take `C=CCOCC1CO1` (configuration not stated): the T/C was 87 % of control under setting [1]; 104 % of control (dose: 200.0 mg/kg/injection, schedule: Q01DX010 (sc), vehicle: saline); 69 % of control (dose: 400.0 mg/kg/injection, schedule: Q01DX010 (sc), vehicle: saline).
With `CNC(=O)ON(C(C)=O)C(=O)NC`, the T/C under setting [2] was 109 % of control and the T/C (dose: 25.0 mg/kg/injection, schedule: Q01DX010 (sc), vehicle: saline) was 102 % of control.
Take `CC(=O)c1c(O)c(C)c(O)c2c1OC1=CC(=O)C(C(C)=O)C(=O)C12C` (configuration not stated): the T/C (dose: 25.0 mg/kg/injection, schedule: Q01DX010 (sc), vehicle: sodium bicarbonate) is 207 % of control; the T/C (dose: 50.0 mg/kg/injection, schedule: Q01DX010 (sc), vehicle: sodium bicarbonate) is 102 % of control; the T/C (dose: 200.0 mg/kg/injection, schedule: Q01DX010 (sc), vehicle: sodium bicarbonate) was 82 % of control and 104 % of control.
In the case of `Oc1cc2c3c(c1)c1cc4c(cc1c[n+]3CC2)OCO4`, the T/C is, setting by setting: (dose: 25.0 mg/kg/injection, schedule: Q04DX003 (sc), vehicle: water) 102 % of control; (dose: 50.0 mg/kg/injection, schedule: Q04DX003 (sc), vehicle: water) 124 % of control; (dose: 100.0 mg/kg/injection, schedule: Q04DX003 (sc), vehicle: water) 93 % of control; (dose: 200.0 mg/kg/injection, schedule: Q04DX003 (sc), vehicle: water) 103 % of control.
For `CC[C@@]1(O)C[C@H](OC2CC(N(C)C)C(OC3CC(O)C(OC4CCC(=O)C(C)O4)C(C)O3)C(C)O2)c2c(cc3c(c2O)C(=O)c2c(O)cccc2C3=O)[C@H]1C(=O)OC` (some centres not stated), the T/C by setting is: (dose: 0.5 mg/kg/injection, schedule: Q01DX010 (sc), vehicle: water) 105 % of control; (dose: 1.0 mg/kg/injection, schedule: Q01DX010 (sc), vehicle: water) 69 % of control; (dose: 1.66 mg/kg/injection, schedule: Q04DX003 (ip), vehicle: water) 24 % of control; (dose: 2.0 mg/kg/injection, schedule: Q01DX010 (sc), vehicle: water) 83 % of control; (dose: 3.33 mg/kg/injection, schedule: Q04DX003 (ip), vehicle: water) 22 % of control.
`CCc1c(CC(=O)O)c2cc(C)ccc2n1Cc1ccc(Cl)cc1`: the T/C is, setting by setting: under setting [3], 123 % of control; under setting [4], 82 % of control; (dose: 1200.0 mg/kg/injection, schedule: Q04DX003 (sc), vehicle: Klucel (hydroxypropylcellulose) (HPC)) 92 % of control; (dose: 2400.0 mg/kg/injection, schedule: Q04DX003 (sc), vehicle: Klucel (hydroxypropylcellulose) (HPC)) 50 % of control.
Turning to `Cc1ccc(S(=O)(=O)N/N=C/C(Br)=C(/Br)C(=O)O)cc1`, the T/C runs as follows: (dose: 150.0 mg/kg/injection, schedule: Q04DX003 (sc), vehicle: Klucel (hydroxypropylcellulose) (HPC)) 66 % of control; under setting [3], 58 % of control; under setting [4], 43 % of control.
Consider `CC(C)=CC(=O)OC1C2C(C)=CC(=O)C(O)C2(C)C2C3(O)OCC24C(CC(=O)OC14)C(C)C3O` (configuration not stated), for which the T/C is 92 % of control (dose: 1.25 mg/kg/injection, schedule: Q04DX003 (sc), vehicle: distilled water + Tween-80) and 90 % of control (dose: 2.5 mg/kg/injection, schedule: Q04DX003 (sc), vehicle: distilled water + Tween-80).
For `[Cl][Pt+2][Cl].[NH-]C1CCC1.[NH2-]`, the T/C (dose: 12.5 mg/kg/injection, schedule: Q04DX003 (sc), vehicle: suspension in saline) was 57 % of control.
Regarding `CN1CCN(c2ccc3nc(-c4ccc5nc(-c6ccc(O)cc6)[nH]c5c4)[nH]c3c2)CC1`, the T/C reads like this: under setting [5], 73 % of control; (dose: 400.0 mg/kg/injection, schedule: Q04DX003 (sc), vehicle: saline) 73 % of control.
For `CC1=CC(=NN=c2cc(C)n([O-])c(C)c2)C=C(C)[N+]1=O`, the T/C is 96 % of control (dose: 300.0 mg/kg/injection, schedule: Q04DX003 (sc), vehicle: suspension in saline) and 77 % of control (dose: 1200.0 mg/kg/injection, schedule: Q04DX003 (sc), vehicle: suspension in saline).
For the compound `OCC1OC(n2cnc3c(=S)nc[nH]c32)C(O)C1O` (configuration not stated), the T/C runs as follows: under setting [1], 86 % of control; under setting [6], 75 % of control; under setting [7], 99 % of control; (dose: 1200.0 mg/kg/injection, schedule: Q04DX003 (sc), vehicle: saline) 124 % of control; (dose: 2400.0 mg/kg/injection, schedule: Q04DX003 (sc), vehicle: saline) 65 % of control.
As to `CC1CN1P1(N2CC2C)=NP(N2CC2C)(N2CC2C)=NP(N2CC2C)(N2CC2C)=N1` (configuration not stated), the T/C was 47 % of control and 60 % of control and 67 % of control under setting [8]; 14 % of control and 15 % of control and 25 % of control under setting [1].
For the compound `COc1cccc2c1C(=O)c1c(O)c3c(c(O)c1C2=O)C[C@@](O)(C(C)=O)C[C@@H]3OC1CC(N)C(O)C(C)O1` (some centres not stated), the T/C by setting is: (dose: 0.5 mg/kg/injection, schedule: Q01DX010 (sc), vehicle: saline) 45 % of control; (dose: 1.0 mg/kg/injection, schedule: Q01DX010 (sc), vehicle: saline) 12 % of control; (dose: 2.0 mg/kg/injection, schedule: Q01DX010 (sc), vehicle: saline) 19 % of control; (dose: 4.0 mg/kg/injection, schedule: Q01DX010 (sc), vehicle: saline) 21 % of control.
As for `COC1C(OC(=O)/C=C/C=C/C=C/C=C/C(=O)O)CCC2(CO2)C1C1(C)OC1CC=C(C)C` (configuration not stated), the T/C was 76 % of control (dose: 75.0 mg/kg/injection, schedule: Q04DX003 (sc), vehicle: saline); 81 % of control (dose: 150.0 mg/kg/injection, schedule: Q04DX003 (sc), vehicle: saline); 75 % of control under setting [6]; 66 % of control under setting [7].
For `Cc1c2ccncc2c(C)c2c1[nH]c1ccccc12`, the T/C reads like this: (dose: 6.25 mg/kg/injection, schedule: Q01DX010 (sc), vehicle: saline) 24 % of control; under setting [2], 85 % of control; under setting [8], 72 % of control and 75 % of control; under setting [1], 59 % of control.
For the compound `NC1(C(=O)O)CCCC1`, the T/C by setting is: (dose: 12.0 mg/kg/injection, schedule: Q01DX010 (sc), vehicle: saline) 94 % of control; (dose: 24.0 mg/kg/injection, schedule: Q01DX010 (sc), vehicle: saline) 66 % of control; (dose: 48.0 mg/kg/injection, schedule: Q01DX010 (sc), vehicle: saline) 57 % of control; under setting [8], 32 % of control; (dose: 96.0 mg/kg/injection, schedule: Q01DX010 (sc), vehicle: saline) 29 % of control.
With `O=C1CC2(C(=O)N1CN1CCCCC1)c1ccccc1-c1ccccc12`, the T/C was 224 % of control (dose: 200.0 mg/kg/injection, schedule: Q04DX003 (sc), vehicle: Klucel (hydroxypropylcellulose) (HPC)) and 170 % of control (dose: 400.0 mg/kg/injection, schedule: Q04DX003 (sc), vehicle: Klucel (hydroxypropylcellulose) (HPC)).
In the case of `OCCCN1CCCCC1CO` (configuration not stated), the T/C under setting [5] is 98 % of control.
`C/C=C/c1cc2c(c(=O)o1)C(=O)[C@@H](O)[C@H](C)O2`: the T/C reads like this: (dose: 25.0 mg/kg/injection, schedule: Q04DX003 (sc), vehicle: saline with Tween-80) 92 % of control; (dose: 50.0 mg/kg/injection, schedule: Q04DX003 (sc), vehicle: saline with Tween-80) 95 % of control; (dose: 100.0 mg/kg/injection, schedule: Q04DX003 (sc), vehicle: saline with Tween-80) 75 % of control and 97 % of control; (dose: 200.0 mg/kg/injection, schedule: Q04DX003 (sc), vehicle: saline with Tween-80) 82 % of control and 87 % of control.
